Measurements taken from patent US20260297060A1, “COMPOUNDS FOR THE DEGRADATION OF MUTANT BRAF” (C4 THERAPEUTICS, INC., priority 2023, published 2026).
Where two headings read alike, the source gives them in different places.

Target: T1, BRAF V600E (Homo sapiens, UniProt P15056+Q96SW2, V600E)
T1 construct: knock-in of the HiBiT tag to the endogenous BRAF V600E locus; host or cells: A375.10 (A375 clonal line, CRISPR HiBiT knock-in at the endogenous BRAF V600E locus)
Assay: BRAF V600E HiBiT Degradation Assay
Assay type: cell-based
Summary of the method: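 Endogenous HiBiT knock-in on BRAF V600E in A375 cells (clone A375.10); 11-point half-log series, top 10 μM, 2, 6 or 24 h at 37° C. Lytic HiBiT luminescence, background-subtracted, normalized to DMSO; 4-parameter fit gives DC50, Emax (residual protein) and IP (inflection point).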

[1] = A375.10 cells, BRAF V600E, 6 hours, residual protein remaining, read-out: HiBiT-Degradation A375.10 BRAF 6 hours Emax
[2] = A375.10 cells, HiBiT, BRAF V600E, 24 hours, read-out: HiBiT-Degradation A375.10 BRAF 24 hours Emax
[3] = read-out: HiBiT-Degradation A375.10 BRAF 2 hours DC50, A375.10 cells, BRAF V600E, 2 hours
[4] = read-out: HiBiT-Degradation A375.10 BRAF 2 hours IP, A375.10 cells, BRAF V600E, 2 hours, inflection point
[5] = A375.10 cells, BRAF V600E, 2 hours, inflection point, read-out: HiBiT-Degradation A375.10 BRAF 2 hours IP
[6] = A375.10 cells, BRAF V600E, 2 hours, read-out: HiBiT-Degradation A375.10 BRAF 2 hours DC50
[7] = A375.10 cells, BRAF V600E, 6 hours, inflection point, read-out: HiBiT-Degradation A375.10 BRAF 6 hours IP
[8] = A375.10 cells, BRAF V600E, 6 hours, read-out: HiBiT-Degradation A375.10 BRAF 6 hours DC50
[9] = A375.10 cells, HiBiT, BRAF V600E, 24 hours, read-out: HiBiT-Degradation A375.10 BRAF 24 hours DC50
[10] = A375.10 cells, HiBiT, BRAF V600E, 24 hours, read-out: HiBiT-Degradation A375.10 BRAF 24 hours IP
[11] = read-out: HiBiT-Degradation A375.10 BRAF 2 hours Emax, A375.10 cells, BRAF V600E, 2 hours, residual protein remaining

T1 sequence (P15056 whole entry V600E): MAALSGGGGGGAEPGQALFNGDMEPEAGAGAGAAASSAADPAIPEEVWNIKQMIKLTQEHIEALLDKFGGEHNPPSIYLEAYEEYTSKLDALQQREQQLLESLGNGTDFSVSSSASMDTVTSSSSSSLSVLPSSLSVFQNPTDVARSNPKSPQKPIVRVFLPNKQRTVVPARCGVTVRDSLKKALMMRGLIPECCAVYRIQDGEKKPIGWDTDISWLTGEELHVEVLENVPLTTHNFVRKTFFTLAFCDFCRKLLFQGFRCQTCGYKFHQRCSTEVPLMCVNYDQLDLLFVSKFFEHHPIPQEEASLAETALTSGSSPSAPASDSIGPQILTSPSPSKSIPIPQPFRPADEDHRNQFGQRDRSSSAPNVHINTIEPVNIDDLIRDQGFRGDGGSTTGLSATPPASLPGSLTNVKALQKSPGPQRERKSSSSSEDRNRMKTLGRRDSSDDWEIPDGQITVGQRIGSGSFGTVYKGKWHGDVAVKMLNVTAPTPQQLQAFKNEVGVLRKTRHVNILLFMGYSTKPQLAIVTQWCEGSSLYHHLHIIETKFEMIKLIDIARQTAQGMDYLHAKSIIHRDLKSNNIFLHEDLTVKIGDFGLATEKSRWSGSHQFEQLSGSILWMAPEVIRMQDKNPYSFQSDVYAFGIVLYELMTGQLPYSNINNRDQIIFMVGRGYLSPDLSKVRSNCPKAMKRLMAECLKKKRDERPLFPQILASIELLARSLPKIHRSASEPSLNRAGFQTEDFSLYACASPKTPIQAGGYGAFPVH
T1 sequence (Q96SW2 whole entry): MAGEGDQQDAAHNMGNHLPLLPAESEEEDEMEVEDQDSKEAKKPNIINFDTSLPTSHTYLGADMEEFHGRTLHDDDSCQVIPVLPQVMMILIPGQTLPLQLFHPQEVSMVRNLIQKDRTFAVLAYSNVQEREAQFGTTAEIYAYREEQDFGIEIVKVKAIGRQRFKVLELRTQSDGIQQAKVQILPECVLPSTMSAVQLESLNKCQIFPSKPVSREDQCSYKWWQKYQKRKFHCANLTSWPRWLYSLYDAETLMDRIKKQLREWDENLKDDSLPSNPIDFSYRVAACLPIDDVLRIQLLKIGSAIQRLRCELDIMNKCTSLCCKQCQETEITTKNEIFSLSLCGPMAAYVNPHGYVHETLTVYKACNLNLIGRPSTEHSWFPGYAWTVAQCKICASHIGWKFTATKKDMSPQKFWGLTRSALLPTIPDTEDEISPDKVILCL
T1 sequence (Q16531 whole entry partner): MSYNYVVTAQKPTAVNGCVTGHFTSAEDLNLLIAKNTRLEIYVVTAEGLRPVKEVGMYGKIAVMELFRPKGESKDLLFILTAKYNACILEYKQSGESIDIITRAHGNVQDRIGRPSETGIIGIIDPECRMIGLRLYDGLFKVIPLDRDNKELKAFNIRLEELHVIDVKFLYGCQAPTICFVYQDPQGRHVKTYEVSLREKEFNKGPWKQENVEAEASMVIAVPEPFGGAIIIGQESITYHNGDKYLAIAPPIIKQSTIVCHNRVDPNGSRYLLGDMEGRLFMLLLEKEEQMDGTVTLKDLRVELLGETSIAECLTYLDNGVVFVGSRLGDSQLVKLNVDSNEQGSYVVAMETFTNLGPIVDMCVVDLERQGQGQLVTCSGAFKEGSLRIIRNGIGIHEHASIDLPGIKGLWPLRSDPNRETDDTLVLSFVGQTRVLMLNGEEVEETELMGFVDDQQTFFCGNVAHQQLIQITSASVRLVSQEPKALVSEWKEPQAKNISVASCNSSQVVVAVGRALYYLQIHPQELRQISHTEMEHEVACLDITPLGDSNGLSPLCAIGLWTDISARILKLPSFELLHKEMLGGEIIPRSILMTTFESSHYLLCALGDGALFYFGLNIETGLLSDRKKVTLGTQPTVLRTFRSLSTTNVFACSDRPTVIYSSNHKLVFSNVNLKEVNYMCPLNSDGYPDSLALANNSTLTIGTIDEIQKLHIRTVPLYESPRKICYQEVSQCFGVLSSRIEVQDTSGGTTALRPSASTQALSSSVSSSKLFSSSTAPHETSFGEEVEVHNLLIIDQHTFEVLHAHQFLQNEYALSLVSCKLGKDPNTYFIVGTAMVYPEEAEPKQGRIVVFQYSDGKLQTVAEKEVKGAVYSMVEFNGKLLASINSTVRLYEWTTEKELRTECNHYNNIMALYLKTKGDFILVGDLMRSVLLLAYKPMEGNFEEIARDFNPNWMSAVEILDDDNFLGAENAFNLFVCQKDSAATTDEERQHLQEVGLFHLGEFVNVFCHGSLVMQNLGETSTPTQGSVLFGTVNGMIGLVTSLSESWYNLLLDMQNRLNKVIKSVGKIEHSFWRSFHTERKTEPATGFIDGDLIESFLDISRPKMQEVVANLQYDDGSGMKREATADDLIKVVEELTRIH

SMILES	Emax [1]	Emax [2]	DC50 [3]	DC50 [4]	DC50 [5]	DC50 [6]	DC50 [9]	DC50 [10]	Emax [11]	further results
CN(CCO)S(=O)(=O)Nc1ccc(F)c(Oc2ccc3ncn(C4CC5(CCN(C6CC7(C6)CN(c6cc8c(cc6F)c(N6CCC(=O)NC6=O)nn8C)C7)CC5)C4)c(=O)c3c2)c1C#N (stereo not drawn) [Compound 151, 6-[2-cyano-6-fluoro-3-[[2-hydroxyethyl(methyl)sulfamoyl]amino]phenoxy]-3-[7-[2-[3-(2,4-dioxohexahydropyrimidin-1-yl)-5-fluoro-1-methyl-indazol-6-yl]-2-azaspiro[3.3]heptan-6-yl]-7-azaspiro[3.5]nonan-2-yl]-4-oxo-quinazoline]	< 50%	< 50%	1000 to 10000 nM	< 1000 nM	–	–	–	–	–	Emax (A375.10 cells, BRAF V600E, 2 hours, residual protein remaining, read-out: HiBiT-Degradation A375.10 BRAF 2 hours Emax): 50 to 90%; DC50 (read-out: HiBiT-Degradation A375.10 BRAF 6 hours DC50, A375.10 cells, BRAF V600E, 6 hours): < 1000 nM; DC50 (read-out: HiBiT-Degradation A375.10 BRAF 6 hours IP, A375.10 cells, BRAF V600E, 6 hours, inflection point): < 1000 nM; DC50 (read-out: HiBiT-Degradation A375.10 BRAF 24 hours DC50, A375.10 cells, HiBiT, BRAF V600E, 24 hours): < 1000 nM; DC50 (read-out: HiBiT-Degradation A375.10 BRAF 24 hours IP, A375.10 cells, HiBiT, BRAF V600E, 24 hours): < 1000 nM
CCN(C)S(=O)(=O)Nc1ccc(F)c(Oc2ccc3ncn(C4CC5(CCN(C6CCN(c7cc8c(cc7F)c(N7CCC(=O)NC7=O)nn8C)CC6)CC5)C4)c(=O)c3c2)c1C#N [Compound 156, 6-[2-cyano-3-[[ethyl(methyl)sulfamoyl]amino]-6-fluoro-phenoxy]-3-[7-[1-[3-(2,4-dioxohexahydropyrimidin-1-yl)-5-fluoro-1-methyl-indazol-6-yl]-4-piperidyl]-7-azaspiro[3.5]nonan-2-yl]-4-oxo-quinazoline]	< 50%	< 50%	–	–	< 1000 nM	< 1000 nM	< 1000 nM	< 1000 nM	< 50%	DC50 [7]: < 1000 nM; DC50 [8]: < 1000 nM
CO[C@H]1CCN(S(=O)(=O)Nc2ccc(F)c(Oc3ccc4ncn([C@H]5COC6(CCN(C7CC8(C7)CN(c7cc9c(cc7F)c(N7CCC(=O)NC7=O)nn9C)C8)CC6)C5)c(=O)c4c3)c2C#N)C1 [Compound 157, (3S)-N-[2-cyano-3-[3-[(3R)-8-[2-[3-(2,4-dioxohexahydropyrimidin-1-yl)-5-fluoro-1-methyl-indazol-6-yl]-2-azaspiro[3.3]heptan-6-yl]-1-oxa-8-azaspiro[4.5]decan-3-yl]-4-oxo-quinazolin-6-yl]oxy-4-fluoro-phenyl]-3-methoxy-pyrrolidine-1-sulfonamide]	< 50%	< 50%	–	–	< 1000 nM	< 1000 nM	< 1000 nM	< 1000 nM	50 to 90%	DC50 [7]: < 1000 nM; DC50 [8]: < 1000 nM
CCN(C)S(=O)(=O)Nc1ccc(F)c(Oc2ccc3ncc([C@H]4COC5(CCN(C6CC7(C6)CN(c6cc8c(cc6F)c(N6CCC(=O)NC6=O)nn8C)C7)CC5)C4)nc3c2)c1C#N [Compound 158, (3S)-3-[7-[2-cyano-3-[[ethyl(methyl)sulfamoyl]amino]-6-fluoro-phenoxy]quinoxalin-2-yl]-8-[2-[3-(2,4-dioxohexahydropyrimidin-1-yl)-5-fluoro-1-methyl-indazol-6-yl]-2-azaspiro[3.3]heptan-6-yl]-1-oxa-8-azaspiro[4.5]decane]	–	–	–	–	< 1000 nM	1000 to 10000 nM	–	–	50 to 90%	–
CCN(C)S(=O)(=O)Nc1ccc(F)c(Oc2ccc3ncc(C4CC5(CCN(C6CC7(C6)CN(c6cc8c(cc6F)c(N6CCC(=O)NC6=O)nn8C)C7)CC5)C4)nc3c2)c1C#N (stereo not drawn) [Compound 177, 7-[2-cyano-3-[[ethyl(methyl)sulfamoyl]amino]-6-fluoro-phenoxy]-2-[7-[2-[3-(2,4-dioxohexahydropyrimidin-1-yl)-5-fluoro-1-methyl-indazol-6-yl]-2-azaspiro[3.3]heptan-6-yl]-7-azaspiro[3.5]nonan-2-yl]quinoxaline]	< 50%	< 50%	–	–	< 1000 nM	< 1000 nM	< 1000 nM	< 1000 nM	< 50%	DC50 [7]: < 1000 nM; DC50 [8]: < 1000 nM
CCN(C)S(=O)(=O)Nc1ccc(F)c(Oc2ccc3ncn(C4CC5(CCN(C6CC7(CCN(c8cc9c(cc8F)c(N8CCC(=O)NC8=O)nn9C)CC7)C6)CC5)C4)c(=O)c3c2)c1C#N (stereo not drawn) [Compound 198, 6-[2-cyano-3-[[ethyl(methyl)sulfamoyl]amino]-6-fluoro-phenoxy]-3-[7-[7-[3-(2,4-dioxohexahydropyrimidin-1-yl)-5-fluoro-1-methyl-indazol-6-yl]-7-azaspiro[3.5]nonan-2-yl]-7-azaspiro[3.5]nonan-2-yl]-4-oxo-quinazoline]	–	< 50%	–	–	< 1000 nM	< 1000 nM	< 1000 nM	< 1000 nM	< 50%	–
COC1CN(S(=O)(=O)Nc2ccc(F)c(Oc3ccc4ncn([C@H]5COC6(CCN(C7CC8(C7)CN(c7cc9c(cc7F)c(N7CCC(=O)NC7=O)nn9C)C8)CC6)C5)c(=O)c4c3)c2C#N)C1 [Compound 246, N-[2-cyano-3-[3-[(3R)-8-[2-[3-(2,4-dioxohexahydropyrimidin-1-yl)-5-fluoro-1-methyl-indazol-6-yl]-2-azaspiro[3.3]heptan-6-yl]-1-oxa-8-azaspiro[4.5]decan-3-yl]-4-oxo-quinazolin-6-yl]oxy-4-fluoro-phenyl]-3-methoxy-azetidine-1-sulfonamide]	–	–	1000 to 10000 nM	< 1000 nM	–	–	–	–	50 to 90%	–
Cn1nc(N2CCC(=O)NC2=O)c2cc(F)c(N3CC4(CC(N5CCC6(CC5)CC(n5cnc7ccc(Oc8c(F)ccc(NS(=O)(=O)C9CCCC9)c8C#N)cc7c5=O)C6)C4)C3)cc21 [Compound 250, N-[2-cyano-3-[3-[7-[2-[3-(2,4-dioxohexahydropyrimidin-1-yl)-5-fluoro-1-methyl-indazol-6-yl]-2-azaspiro[3.3]heptan-6-yl]-7-azaspiro[3.5]nonan-2-yl]-4-oxo-quinazolin-6-yl]oxy-4-fluoro-phenyl]cyclopentanesulfonamide]	–	–	–	–	< 1000 nM	< 1000 nM	–	–	< 50%	–
Cn1nc(N2CCC(=O)NC2=O)c2cc(F)c(N3CC4(CC(N5CCC6(CC5)C[C@@H](n5cnc7ccc(Oc8c(F)ccc(NS(=O)(=O)N9CC%10(CCC%10)C9)c8C#N)cc7c5=O)CO6)C4)C3)cc21 [Compound 254, N-[2-cyano-3-[3-[(3R)-8-[2-[3-(2,4-dioxohexahydropyrimidin-1-yl)-5-fluoro-1-methyl-indazol-6-yl]-2-azaspiro[3.3]heptan-6-yl]-1-oxa-8-azaspiro[4.5]decan-3-yl]-4-oxo-quinazolin-6-yl]oxy-4-fluoro-phenyl]-2-azaspiro[3.3]heptane-2-sulfonamide]	–	–	–	–	< 1000 nM	< 1000 nM	–	–	50 to 90%	–
Cn1nc(N2CCC(=O)NC2=O)c2cc(F)c(N3CC4(CC(N5CCC6(CC5)CC(n5cnc7ccc(Oc8c(F)ccc(NS(=O)(=O)C9CCC9)c8C#N)cc7c5=O)C6)C4)C3)cc21 [Compound 259, N-[2-cyano-3-[3-[7-[2-[3-(2,4-dioxohexahydropyrimidin-1-yl)-5-fluoro-1-methyl-indazol-6-yl]-2-azaspiro[3.3]heptan-6-yl]-7-azaspiro[3.5]nonan-2-yl]-4-oxo-quinazolin-6-yl]oxy-4-fluoro-phenyl]cyclobutanesulfonamide]	–	–	< 1000 nM	< 1000 nM	–	–	–	–	< 50%	–
Cn1nc(N2CCC(=O)NC2=O)c2cc(F)c(N3CC4(CC(N5CCC6(CC5)CC(n5cnc7ccc(Oc8c(F)ccc(NS(=O)(=O)C9CC9)c8C#N)cc7c5=O)C6)C4)C3)cc21 [Compound 260, N-[2-cyano-3-[3-[7-[2-[3-(2,4-dioxohexahydropyrimidin-1-yl)-5-fluoro-1-methyl-indazol-6-yl]-2-azaspiro[3.3]heptan-6-yl]-7-azaspiro[3.5]nonan-2-yl]-4-oxo-quinazolin-6-yl]oxy-4-fluoro-phenyl]cyclopropanesulfonamide]	–	–	< 1000 nM	< 1000 nM	–	–	–	–	< 50%	–
Cn1nc(N2CCC(=O)NC2=O)c2cc(F)c(N3CC4(CC(N5CCC6(CC5)CC(n5cnc7ccc(Oc8c(F)ccc(NS(=O)(=O)N9CC[C@@H](F)C9)c8C#N)cc7c5=O)C6)C4)C3)cc21 [Compound 261, (3R)-N-[2-cyano-3-[3-[7-[2-[3-(2,4-dioxohexahydropyrimidin-1-yl)-5-fluoro-1-methyl-indazol-6-yl]-2-azaspiro[3.3]heptan-6-yl]-7-azaspiro[3.5]nonan-2-yl]-4-oxo-quinazolin-6-yl]oxy-4-fluoro-phenyl]-3-fluoro-pyrrolidine-1-sulfonamide]	–	–	< 1000 nM	< 1000 nM	–	–	–	–	< 50%	–
